Source: patent EP1178807B1, “USE OF ORG 33245 IN COMBINED INTERMITTENT HORMONE THERAPY AND CONTRACEPTION” (Akzo Nobel N.V., priority 1999, dated 2000)

Assays:
orosomucoid = assay: Binding to orosomucoid (as described in Philibert et al.); parameters: species or system human; conditions: for Binding affinity to orosomucoid (relative to RU 486): relative to RU 486 (100%)
Description: Of several anti-progestagens the binding to orosomucoid is determined as described in Philibert et al., Antihormones in Health and Disease (M.K. Agarwal, ed.), 1991, 19, 1-17.

[1] = Anti-McPhail test for anti-progestagenic activity; assay type: in vivo; conditions: Minimum Active Dose (MAD)
Description: Anti-progestagenic activity is determined by using an anti-McPhail test as known to the person skilled in the art and described, int.al., in Kloosterboer et al., Human Reproduction (1994), Volume 9, Supplement 1, pages 47-52.

SMILES | Binding affinity to orosomucoid (relative to RU 486) (orosomucoid) | minimal effective dose [1] [mg/kg] | binding to human orosomucoid (orosomucoid; result in words, said to indicate a relatively long half life)
C=C1CCO[C@]12CC[C@H]1[C@@H]3CCC4=CC(=O)CCC4=C3[C@@H](c3ccc(SC)cc3)C[C@@]12C | 82% | > 1 | –
C=C1CCO[C@]12CC[C@H]1[C@@H]3CCC4=CC(=O)CCC4=C3[C@@H](c3ccc(N(C)C)cc3)C[C@@]12C [Org 33245, (11β,17α)-17,23-epoxy-11-[(4-dimethylamino)phenyl]-19,24-dinorchola-4,9,20-trien-3-one] | 222% | 0.5 | strong binding
C=C1CCO[C@]12CC[C@H]1[C@@H]3CCC4=CC(=O)CCC4=C3[C@@H](c3ccc(OC)cc3)C[C@@]12C | 64% | 1 | –
C=C1CCO[C@]12CC[C@H]1[C@@H]3CCC4=CC(=O)CCC4=C3[C@@H](c3ccc(C(C)=O)cc3)C[C@@]12C | 13,5% | 8 | –
